Experimental findings from patent publication US10647675B2 (priority 2015, dated 2020) are described below.

The structures appear in SMILES notation. Converted amounts (≈) assume the structure as drawn. Where only a bound is given, the exact number is not on record here.

Experiment [1] concerns Trichophyton mentagrophytes SM-110. Kind of experiment: Antifungal activity evaluation test: minimum inhibitory concentration (MIC), broth dilution by reference to CLSI M38-A2. Conditions: SM110, read-out: MIC (T. menta.). It is filed as cell-based. Summed up: (§1)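 Broth microdilution after CLSI M38-A2: 2-fold DMSO dilution series in MOPS-buffered RPMI 1640 pH 7.0, inoculum 2×10^3 cells/mL final. Incubated 35° C for 4 days; MIC (μg/mL) is lowest concentration giving visually ≥80% growth inhibition versus growth control.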
Background: Dilution methods test growth across graded concentrations, often in twofold steps.

For experiment [2], the system named is Trichophyton rubrum KD-1130. The experiment is described as above. It is filed as cell-based. The conditions noted are these: KD1130, read-out: MIC (T. rubrum). An outline of the steps: as §1

Consider `CCc1ccc(Oc2ncccc2-c2cncc(Br)c2OC)cc1` [I-285, 5′-bromo-2-(4-ethylphenoxy)-4′-methoxy-3,3′-bipyridine], for which the MIC in experiment [1] and in experiment [2] was at most 0.1 µg/mL each time.

Take `CCc1ccc(Oc2ncccc2-c2cccnc2OC)cc1` [I-280, 2-(4-ethylphenoxy)-2′-methoxy-3,3′-bipyridine]: the MIC in experiment [1] and in experiment [2] was at most 0.1 µg/mL in each case.

Consider `COc1ccncc1-c1cccnc1Oc1ccc(C(C)=O)cc1` [I-244], for which the minimum inhibitory concentration (MIC) in experiment [1] and in experiment [2] was 1.56 to 6.25 µg/mL (≈ 4.87 to 19.5 µM) each time.

As to `Cc1cnn2c(-c3cccnc3Oc3ccc(C(F)(F)F)nc3)cccc12` [I-53, 3-methyl-7-(2-{[6-(trifluoromethyl)pyridin-3-yl]oxy}pyridin-3-yl)-pyrazolo[1,5-a]pyridine], the MIC was 0.2 to 0.78 µg/mL (≈ 0.54 to 2.11 µM) in experiment [1] and at most 0.1 µg/mL in experiment [2].

`Cc1c(F)cncc1-c1cccnc1Oc1ccc(C(C)(F)F)nc1` [I-99, 2-{[6-(1,1-difluoroethyl)pyridin-3-yl]oxy}-5′-fluoro-4′-methyl-3,3′-bipyridine]: the MIC in experiment [1] and in experiment [2] was 0.2 to 0.78 µg/mL (≈ 0.579 to 2.26 µM) throughout.

In the case of `CCc1ccc(Oc2ncccc2-c2cnccc2OC)cc1` [I-253, 2-(4-ethylphenoxy)-4′-methoxy-3,3′-bipyridine], the MIC in experiment [1] and in experiment [2] was at most 0.1 µg/mL in each case.

Turning to `COC(=O)CN(C)c1ncc(Oc2ncccc2-c2ccc(F)cc2OC)cn1` [I-192, methyl 2-[(5-{[3-(4-fluoro-2-methoxyphenyl)pyridin-2-yl]oxy}-pyrimidin-2-yl)(methyl)amino]acetate], the minimum inhibitory concentration (MIC) in experiment [1] and in experiment [2] was at most 0.1 µg/mL in each case.

Turning to `COCC(F)(F)c1ccc(Oc2ncccc2-c2cc(Cl)ccc2OC)cn1` [I-163, 3-(5-chloro-2-methoxyphenyl)-2-{[6-(1,1-difluoro-2-methoxyethyl)pyridin-3-yl]oxy}pyridine], the minimal inhibitory concentration (MIC) in experiment [1] and in experiment [2] was at most 0.1 µg/mL throughout.

Turning to `COc1c(F)cncc1-c1cccnc1Oc1ccc(C(C)(F)F)cc1` [I-301, 2-[4-(1,1-difluoroethyl)-phenoxy]-5′-fluoro-4′-methoxy-3,3′-bipyridine], the MIC in experiment [1] and in experiment [2] was at most 0.1 µg/mL in each case.

Turning to `COc1ccncc1-c1cccnc1Oc1ccc(OC(F)F)cc1` [I-238, 2-[4-(difluoromethoxy)phenoxy]-4′-methoxy-3,3′-bipyridine], the MIC in experiment [1] and in experiment [2] was 0.2 to 0.78 µg/mL (≈ 0.581 to 2.27 µM) in each case.

For `Cc1ccncc1-c1cccnc1Oc1ccc(C(C)(F)F)nc1` [I-91, 2-{[6-(1,1-difluoroethyl)pyridin-3-yl]oxy}-4′-methyl-3,3′-bipyridine], the MIC in experiment [1] and in experiment [2] was 0.2 to 0.78 µg/mL (≈ 0.611 to 2.38 µM) throughout.

Consider `CC(F)(F)c1ccc(Oc2ncccc2-c2ccncc2F)cn1` [I-92, 2-{[6-(1,1-difluoroethyl)pyridin-3-yl]oxy}-3′-fluoro-3,4′-bipyridine], for which the MIC in experiment [1] and in experiment [2] was 0.2 to 0.78 µg/mL (≈ 0.604 to 2.35 µM) each time.

Turning to `COc1ccccc1-c1cccnc1Oc1ccc(C(F)(F)Cn2cccn2)nc1` [I-350, 2-({6-[1,1-difluoro-2-(1H-pyrazol-1-yl)ethyl]pyridin-3-yl}oxy)-3-(2-methoxyphenyl)pyridine], the MIC in experiment [1] and in experiment [2] was at most 0.1 µg/mL each time.

For the compound `COc1ccccc1-c1cccnc1Oc1cnc2c(c1)CCC=C2` [I-144, 3-{[3-(2-methoxyphenyl)pyridin-2-yl]oxy}-5,6-dihydroquinoline], the minimum inhibitory concentration (MIC) in experiment [1] and in experiment [2] was at most 0.1 µg/mL each time.

As for `Cc1noc(-c2cccnc2Oc2ccc(C(C)(F)F)nc2)c1Cl` [I-104, 4-chloro-5-(2-{[6-(1,1-difluoroethyl)pyridin-3-yl]oxy}pyridin-3-yl)-3-methylisoxazole], the MIC in experiment [1] and in experiment [2] was 0.2 to 0.78 µg/mL (≈ 0.569 to 2.22 µM) throughout.

For `C#Cc1ccc(Oc2ncccc2-c2cccnc2OC)cc1` [I-390, 2-(4-ethynylphenoxy)-2′-methoxy-3,3′-bipyridine], the MIC in experiment [1] and in experiment [2] was at most 0.1 µg/mL each time.

Consider `COc1ccccc1-c1nccnc1Oc1ccc(C(F)(F)F)nc1` [I-309, 2-(2-methoxyphenyl)-3-{[6-(trifluoromethyl)pyridin-3-yl]oxy}pyrazine], for which the MIC in experiment [1] was 0.2 to 0.78 µg/mL (≈ 0.576 to 2.25 µM); in experiment [2] it was at most 0.1 µg/mL.

Turning to `COc1ccccc1-c1cccnc1Oc1ccc(C=O)nc1` [I-71, 5-{[3-(2-methoxyphenyl)pyridin-2-yl]oxy}picolinaldehyde], the MIC in experiment [1] and in experiment [2] was 1.56 to 6.25 µg/mL (≈ 5.09 to 20.4 µM) throughout.

Regarding `CCOCC(F)(F)c1ccc(Oc2ncccc2-c2ccc(F)cc2OC)cn1` [I-155, 2-{[6-(2-ethoxy-1,1-difluoroethyl)pyridin-3-yl]oxy}-3-(4-fluoro-2-methoxyphenyl)pyridine], the MIC in experiment [1] and in experiment [2] was at most 0.1 µg/mL throughout.

As to `COc1cc(F)ccc1-c1cccnc1Oc1cnc(N(C)Cc2nccs2)nc1` [I-194, 5-{[3-(4-fluoro-2-methoxyphenyl)pyridin-2-yl]oxy}-N-methyl-N-(thiazol-2-ylmethyl)pyrimidin-2-amine], the results for the MIC in experiment [1] and in experiment [2] were at most 0.1 µg/mL and 0.2 to 0.78 µg/mL (≈ 0.472 to 1.84 µM), respectively.

For `COc1ccc(OC)c(-c2cccnc2Oc2ccc(C(C)(F)F)nc2)n1` [I-96, 2′-{[6-(1,1-difluoroethyl)pyridin-3-yl]oxy}-3,6-dimethoxy-2,3′-bipyridine], the MIC in experiment [1] and in experiment [2] was at most 0.1 µg/mL in each case.

With `COc1ccccc1-c1cccnc1Oc1ccc(CNc2ccccc2)nc1` [I-371, N-[(5-{[3-(2-methoxyphenyl)pyridin-2-yl]oxy}pyridin-2-yl)methyl]aniline], the MIC in experiment [1] and in experiment [2] was at most 0.1 µg/mL each time.

For the compound `COc1ccccc1-c1cccnc1Oc1cnc(N(C)Cc2ccccc2)nc1` [I-339, N-benzyl-5-{[3-(2-methoxyphenyl)pyridin-2-yl]oxy}-N-methylpyrimidin-2-amine], the MIC in experiment [1] and in experiment [2] was at most 0.1 µg/mL in each case.

Consider `COCC(F)(F)c1ccc(Oc2ncccc2-c2ccc(F)cc2OC)cn1` [I-161, 2-{[6-(1,1-difluoro-2-methoxyethyl)pyridin-3-yl]oxy}-3-(4-fluoro-2-methoxyphenyl)pyridine], for which the minimal inhibitory concentration (MIC) in experiment [1] and in experiment [2] was at most 0.1 µg/mL each time.

Take `Cc1ccncc1-c1cccnc1Oc1ccc(C(C)(F)F)c(F)c1` [I-305, 2-[4-(1,1-difluoroethyl)-3-fluorophenoxy]-4′-methyl-3,3′-bipyridine]: the MIC in experiment [1] and in experiment [2] was at most 0.1 µg/mL in each case.

`CNCC(F)(F)c1ccc(Oc2ncccc2-c2ccccc2OC)cn1` [I-146, 2,2-difluoro-2-(5-{[3-(2-methoxyphenyl)pyridin-2-yl]oxy}-pyridin-2-yl)-N-methylethanamine]: the MIC in experiment [1] lay within 0.2 to 0.78 µg/mL (≈ 0.539 to 2.1 µM); in experiment [2], 1.56 to 6.25 µg/mL (≈ 4.2 to 16.8 µM).

Take `C=C(C)c1ccc(Oc2ncccc2-c2ccccc2OC)cn1` [I-453]: the MIC in experiment [1] and in experiment [2] was at most 0.1 µg/mL in each case.

Take `Cc1cc(Oc2ncncc2-c2cccc3c2OCC3)cnc1C(F)F` [I-324]: the MIC in experiment [1] and in experiment [2] was at most 0.1 µg/mL each time.

Take `COc1ccccc1-c1cccnc1Oc1ccc(COc2ccccc2)nc1` [I-175, 3-(2-methoxyphenyl)-2-{[6-(phenoxymethyl)pyridin-3-yl]oxy}pyridine]: the MIC in experiment [1] and in experiment [2] was 0.2 to 0.78 µg/mL (≈ 0.52 to 2.03 µM) each time.

For the compound `CCc1ccc(Oc2ncccc2-c2cncnc2OC)cc1` [I-282, 5-[2-(4-ethylphenoxy)pyridin-3-yl]-4-methoxypyrimidine], the MIC in experiment [1] and in experiment [2] was at most 0.1 µg/mL throughout.

Regarding `COc1ccncc1-c1cccnc1Oc1ccc(Br)cc1` [I-234, 2-(4-bromophenoxy)-4′-methoxy-3,3′-bipyridine], the MIC in experiment [1] and in experiment [2] was at most 0.1 µg/mL throughout.

As to `CCCCN(C)c1ncc(Oc2ncccc2-c2cnccc2OC)cn1` [I-384], the MIC in experiment [1] and in experiment [2] was at most 0.1 µg/mL throughout.

Turning to `COc1ccncc1-c1cccnc1Oc1ccc(C2CC2)cc1` [I-261, 2-(4-cyclopropylphenoxy)-4′-methoxy-3,3′-bipyridine], the MIC in experiment [1] and in experiment [2] was at most 0.1 µg/mL each time.

`FC(F)(F)c1ccc(Oc2ncccc2-c2cccc3c2OCC3)cn1` [I-35, 3-(2,3-dihydrobenzofuran-7-yl)-2-{[6-(trifluoromethyl)pyridin-3-yl]oxy}pyridine]: the MIC in experiment [1] and in experiment [2] was at most 0.1 µg/mL each time.

Take `COc1cc(F)ccc1-c1cccnc1Oc1ccc(Cl)nc1` [I-366]: the MIC in experiment [1] and in experiment [2] was at most 0.1 µg/mL each time.

For the compound `FC(F)(F)c1ccc(Oc2ncccc2-c2cncc3cccnc23)cc1` [I-225, 8-{2-[4-(trifluoromethyl)phenoxy]pyridin-3-yl}-1,6-naphthyridine], the MIC in experiment [1] and in experiment [2] was at most 0.1 µg/mL in each case.

With `Cc1nn2c(c1-c1cccnc1Oc1ccc(C(F)(F)F)cc1)OCCCC2` [I-233, 2-methyl-3-{2-[4-(trifluoromethyl)phenoxy]pyridin-3-yl}-5,6,7,8-tetrahydropyrazolo[1,5-b][1,3]oxazepine], the MIC in experiment [1] and in experiment [2] was 0.2 to 0.78 µg/mL (≈ 0.514 to 2 µM) throughout.

For the compound `COCC(F)(F)c1ccc(Oc2ncccc2-c2cnccc2OC)cn1` [I-349, 2-{[6-(1,1-difluoro-2-methoxyethyl)pyridin-3-yl]oxy}-4′-methoxy-3,3′-bipyridine], the MIC in experiment [1] and in experiment [2] was 1.56 to 6.25 µg/mL (≈ 4.18 to 16.7 µM) throughout.

Take `CC(F)(F)c1ccc(Oc2ncccc2-c2cccc3ocnc23)cn1` [I-113, 4-(2-{[6-(1,1-difluoroethyl)pyridin-3-yl]oxy}-3-yl)benzo[d]oxazole]: the minimum inhibitory concentration (MIC) is at most 0.1 µg/mL in experiment [1] and 0.2 to 0.78 µg/mL (≈ 0.566 to 2.21 µM) in experiment [2].

`Cc1cncc(-c2cccnc2Oc2ccc(C(C)(F)F)nc2)c1` [I-93, 2-{[6-(1,1-difluoroethyl)pyridin-3-yl]oxy}-5′-methyl-3,3′-bipyridine]: the MIC in experiment [1] and in experiment [2] was 0.2 to 0.78 µg/mL (≈ 0.611 to 2.38 µM) throughout.

Turning to `CCc1cc(Oc2ncccc2-c2cnccc2OC)ccc1C(F)F` [I-296, 2-[4-(difluoromethyl)-3-ethylphenoxy]-4′-methoxy-3,3′-bipyridine], the minimum inhibitory concentration (MIC) in experiment [1] and in experiment [2] was at most 0.1 µg/mL each time.

What is called MIC is the lowest concentration found to suppress growth.
